Reference: patent US11530196B2, “Pyrimidine compound acting on EGFR and ERBB2” (CHINA RESOURCES PHARMACEUTICAL HOLDINGS COMPANY LIMITED, priority 2019, dated 2022)

How the values were obtained:
[1] = molecular target: BaF3 ERBB2 A775_G776 ins YVMA (Homo sapiens, UniProt P04626, DUP772-775, cells depend on it); assay: Anti-proliferation against Ba/F3 exon 20 insertion mutant cells (ERBB2 YVMA); assay type: cell-based, mouse; conditions: CTG, 72 hours, read-out: Mutant cells IC50 (anti-proliferation)
BaF3 ERBB2 A775_G776 ins YVMA, sequence (P04626 with tags, fused parts or gaps DUP772-775): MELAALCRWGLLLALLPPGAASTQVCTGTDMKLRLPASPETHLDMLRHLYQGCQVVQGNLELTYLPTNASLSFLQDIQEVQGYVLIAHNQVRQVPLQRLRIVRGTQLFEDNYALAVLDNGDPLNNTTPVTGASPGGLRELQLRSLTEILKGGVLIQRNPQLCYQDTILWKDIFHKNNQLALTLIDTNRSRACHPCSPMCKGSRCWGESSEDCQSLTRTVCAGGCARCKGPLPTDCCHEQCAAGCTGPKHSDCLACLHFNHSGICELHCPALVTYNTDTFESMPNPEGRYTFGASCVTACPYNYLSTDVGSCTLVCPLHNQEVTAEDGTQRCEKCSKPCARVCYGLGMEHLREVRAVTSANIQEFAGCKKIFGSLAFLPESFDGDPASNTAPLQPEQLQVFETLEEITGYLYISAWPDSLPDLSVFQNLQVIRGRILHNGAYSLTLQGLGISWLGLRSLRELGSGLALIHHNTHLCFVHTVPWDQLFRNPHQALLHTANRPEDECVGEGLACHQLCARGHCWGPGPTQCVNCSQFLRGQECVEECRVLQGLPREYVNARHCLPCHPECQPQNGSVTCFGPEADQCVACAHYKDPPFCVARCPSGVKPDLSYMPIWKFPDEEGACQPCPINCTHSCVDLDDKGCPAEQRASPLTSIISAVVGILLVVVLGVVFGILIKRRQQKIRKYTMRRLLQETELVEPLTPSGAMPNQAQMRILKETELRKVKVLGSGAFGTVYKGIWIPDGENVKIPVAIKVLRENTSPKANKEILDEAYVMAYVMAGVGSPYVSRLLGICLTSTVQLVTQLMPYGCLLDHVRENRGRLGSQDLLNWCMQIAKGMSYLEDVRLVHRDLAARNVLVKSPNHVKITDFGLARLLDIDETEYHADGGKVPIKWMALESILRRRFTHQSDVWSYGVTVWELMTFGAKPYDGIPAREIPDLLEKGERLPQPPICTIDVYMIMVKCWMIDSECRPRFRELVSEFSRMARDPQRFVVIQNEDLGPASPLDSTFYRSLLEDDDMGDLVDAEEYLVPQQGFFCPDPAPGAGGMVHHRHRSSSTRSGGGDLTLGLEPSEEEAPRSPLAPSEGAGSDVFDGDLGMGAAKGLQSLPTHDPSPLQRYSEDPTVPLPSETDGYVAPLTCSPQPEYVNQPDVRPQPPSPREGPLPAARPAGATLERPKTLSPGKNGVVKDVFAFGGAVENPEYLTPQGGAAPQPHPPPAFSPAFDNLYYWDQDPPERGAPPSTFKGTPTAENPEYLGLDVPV
Description: (§1) RPMI1640 medium was purchased from Hyclone, FBS fetal bovine serum was purchased from GBICO, and trypsin-EDTA were both purchased from Giboco. DPBS was purchased from Corning, penicillin/streptomycin solution was purchased from Hyclone, and Cell-Titer Glo reagent was purchased from Promega (Cat. No. G7572). Ba/F3 EGFR-D770_N771insSVD, Ba/F3 EGFR-H773_V774insNPH, Ba/F3 EGFR-V769_D770insASV, BaF3 ERBB2 A775_G776 ins YVMA, the cell lines were constructed by Beijing Kang Yuan Bochuang Biotechnology Co., Ltd. Plate reading instrument: Envision (PerkinElmer).
(§2) Cells in logarithmic growth phase were harvested and cell counts were performed using a […]. Cell viability was detected by the Taipan Blue rejection assay. The cell concentration was adjusted; the cell suspension was added to a 96-well plate separately. Cells in 96-well plates were incubated overnight at 37° C., 5% CO2, and 95% humidity. […] The cell plate was placed at room temperature to stabilize the cold light signal, and the cold light values were read. The data were analyzed using GraphPad Prism 7.0 software, and a nonlinear S-curve regression was used to fit the data to derive the dose-effect curve from which the IC50 values were calculated. […]

[2] = tested on: A431 (EGFR wild type) cells; assay: Anti-proliferation activity test against A431 cells; assay type: cell-based; conditions: Homo sapiens, A-431; A431, Cell-Titer Glo, 72 hours
Protocol: (2) Anti-Proliferation Activity Test of the Compound Against H1975 Cells and IC50 Test of Anti-Proliferation Activity Against A431 Cells
RPMI1640 medium, FBS fetal bovine serum, trypsin-EDTA, were all purchased from Giboco. DPBS was purchased from Corning, penicillin/streptomycin solution was purchased from Hyclone, and Cell-Titer Glo reagent was purchased from Promega (1kit, Cat. No. G7571). Plate reading instrument: Envision (PerkinElmer).
384-well plates in columns 1, 2, and 24 were added with 45 μL of medium, and the cell suspension was dispensed with Multi-drop at 45 μL per well (1000 cells) and incubated overnight in an incubator. The compound was added to the source plate according to the Echo dispensing requirements, the compound in the source plate was added to the inter plate and diluted to an intermediate concentration, then the compound in the source plate and the inter plate was added to the cell plate, and the cells were continued to be incubated in a incubator for 72 hours. After 72 hours, Cell-Titer Glo reagent and cells were removed and equilibrated at room temperature for 30 min. 25 μL of Cell-Titer Glo reagent was dispensed into 384-well plates with Multi-drop, the cell plate was vibrated at medium speed for 3 min, centrifuged at 1000 rpm for 2 min, and stood for 10 min. The plate was read by Envision (Luminescence). […]

[3] = molecular target: EGFR L858R/T790M double mutant enzyme (Homo sapiens, UniProt P00533, L858R/T790M); assay: Kinase assay (HTRF KinEASE TK), EGFR L858R/T790M; assay type: biochemical
EGFR L858R/T790M double mutant enzyme, sequence (P00533 25-1210 T790M/L858R): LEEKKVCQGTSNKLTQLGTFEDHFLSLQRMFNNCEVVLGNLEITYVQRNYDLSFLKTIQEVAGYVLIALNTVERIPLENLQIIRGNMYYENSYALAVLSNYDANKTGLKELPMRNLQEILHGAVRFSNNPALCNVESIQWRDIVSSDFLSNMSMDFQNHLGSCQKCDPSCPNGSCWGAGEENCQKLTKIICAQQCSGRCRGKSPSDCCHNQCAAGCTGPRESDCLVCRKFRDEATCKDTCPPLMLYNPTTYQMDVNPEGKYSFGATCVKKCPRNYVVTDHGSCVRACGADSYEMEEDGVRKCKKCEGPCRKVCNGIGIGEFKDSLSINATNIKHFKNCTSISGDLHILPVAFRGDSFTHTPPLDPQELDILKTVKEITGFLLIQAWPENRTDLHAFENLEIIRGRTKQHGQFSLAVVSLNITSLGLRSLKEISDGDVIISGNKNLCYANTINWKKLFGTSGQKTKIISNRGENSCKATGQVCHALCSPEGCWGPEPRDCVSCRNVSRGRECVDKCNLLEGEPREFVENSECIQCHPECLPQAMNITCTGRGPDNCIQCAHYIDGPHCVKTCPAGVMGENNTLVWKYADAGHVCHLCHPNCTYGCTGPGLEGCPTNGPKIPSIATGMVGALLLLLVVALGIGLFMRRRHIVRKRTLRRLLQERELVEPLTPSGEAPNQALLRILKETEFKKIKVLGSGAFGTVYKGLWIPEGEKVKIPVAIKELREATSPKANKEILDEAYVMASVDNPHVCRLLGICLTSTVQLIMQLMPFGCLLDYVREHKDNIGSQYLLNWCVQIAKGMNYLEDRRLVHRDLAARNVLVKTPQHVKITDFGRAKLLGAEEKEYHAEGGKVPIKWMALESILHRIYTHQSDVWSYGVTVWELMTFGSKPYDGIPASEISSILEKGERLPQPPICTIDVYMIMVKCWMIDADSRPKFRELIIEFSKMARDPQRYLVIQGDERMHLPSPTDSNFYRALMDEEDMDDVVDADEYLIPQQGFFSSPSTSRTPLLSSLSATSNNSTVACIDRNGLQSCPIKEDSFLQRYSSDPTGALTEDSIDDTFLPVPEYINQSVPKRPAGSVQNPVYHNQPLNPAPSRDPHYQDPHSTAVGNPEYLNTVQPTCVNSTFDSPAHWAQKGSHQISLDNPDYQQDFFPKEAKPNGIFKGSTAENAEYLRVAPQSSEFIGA
Description: To detect the inhibitory effect of compounds on EGFR WT, EGFR (D770_N771insNPG), ERBB2 (V777_G778ins>CG), EGFR T790M/L858R enzyme activities
EGFR WT (Invitrogen, Cat. No. PR7295B), EGFR [L858R] (Invitrogen, Cat. No. PR7447A), EGFR [d746-750] (Invitrogen, Cat. No. PV6179), ATP (Sigma, Cat. No. A7699-1G), DMSO (Sigma, Cat. No. D2650), DTT (Sigma, Cat. No. 43815), 384-well plate, compound dilution plate (Greiner, Cat. No. 781280), 384-well plate, test plate (Perkin Elmer, Cat. No. 6007299), HTRF KinEASE TK Kit (Cisbio, Cat. No. 62TK0PEB), magnesium chloride (Sigma, Cat. No. M1028), Orthovanadate (Sigma, Cat. No. 56508), BSA (Sigma, Cat. No. A7030), HEPES (Life technology, Cat. No. 11344-041).
The final test concentrations of the test compounds ranged from 10 μM to 0.17 nM in 3-fold gradient dilutions at 11 concentrations.
The preparation of the buffer, 50 mM HEPES (pH 7.5), 0.01% BSA, 5 mM MgCl2, and 0.1 mM Orthovanadate were contained in the buffer. After the preparation of the buffer, the enzyme and substrate were mixed with pre-diluted prepared compounds of different concentrations, and the mixture was placed at room temperature for 15 minutes. […] After the reaction was completed, the antibody was added to the assay, incubated at room temperature for 60 minutes and then detected by Envision (plate reading instrument), and data were collected. […]

[4] = molecular target: Ba/F3 EGFR-V769_D770insASV (Homo sapiens, UniProt P00533, DUP767-769, cells depend on it); assay: Anti-proliferation against Ba/F3 exon 20 insertion mutant cells (ASV); assay type: cell-based, mouse; conditions: CTG, 72 hours, read-out: Mutant cells IC50 (anti-proliferation)
Ba/F3 EGFR-V769_D770insASV, sequence (P00533 with tags, fused parts or gaps DUP767-769): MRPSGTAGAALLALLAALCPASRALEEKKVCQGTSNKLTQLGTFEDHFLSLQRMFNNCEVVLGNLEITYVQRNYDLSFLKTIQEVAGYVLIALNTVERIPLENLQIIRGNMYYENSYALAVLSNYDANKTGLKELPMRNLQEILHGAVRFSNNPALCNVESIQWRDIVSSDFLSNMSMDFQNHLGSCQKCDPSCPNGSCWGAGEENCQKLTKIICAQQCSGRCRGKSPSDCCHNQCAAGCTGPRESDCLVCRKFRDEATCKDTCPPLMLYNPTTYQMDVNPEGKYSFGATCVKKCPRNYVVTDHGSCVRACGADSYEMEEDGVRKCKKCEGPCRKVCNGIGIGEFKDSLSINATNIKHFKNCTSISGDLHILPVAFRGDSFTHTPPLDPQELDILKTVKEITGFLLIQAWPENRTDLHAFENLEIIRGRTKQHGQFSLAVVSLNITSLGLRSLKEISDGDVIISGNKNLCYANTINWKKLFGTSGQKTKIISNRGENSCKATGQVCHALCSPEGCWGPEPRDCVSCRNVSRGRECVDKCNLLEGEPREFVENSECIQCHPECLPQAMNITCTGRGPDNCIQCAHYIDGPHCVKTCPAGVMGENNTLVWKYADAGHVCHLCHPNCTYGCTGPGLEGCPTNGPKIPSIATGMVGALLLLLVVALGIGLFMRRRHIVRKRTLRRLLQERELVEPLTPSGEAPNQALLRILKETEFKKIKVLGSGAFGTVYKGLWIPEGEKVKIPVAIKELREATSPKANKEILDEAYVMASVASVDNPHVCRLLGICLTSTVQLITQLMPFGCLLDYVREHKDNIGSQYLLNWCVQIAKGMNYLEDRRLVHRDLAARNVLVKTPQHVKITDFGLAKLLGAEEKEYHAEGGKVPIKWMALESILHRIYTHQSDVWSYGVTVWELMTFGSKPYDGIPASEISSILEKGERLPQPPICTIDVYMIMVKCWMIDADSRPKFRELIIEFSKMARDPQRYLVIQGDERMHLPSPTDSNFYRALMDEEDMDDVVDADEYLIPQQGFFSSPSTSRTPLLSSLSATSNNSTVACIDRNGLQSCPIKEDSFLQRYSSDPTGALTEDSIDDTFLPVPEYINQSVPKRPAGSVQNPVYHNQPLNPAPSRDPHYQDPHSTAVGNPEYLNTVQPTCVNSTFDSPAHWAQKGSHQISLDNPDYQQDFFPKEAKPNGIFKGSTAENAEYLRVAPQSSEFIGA
Description: as §1, §2

GI50 [1]: 37 nM | IC50 [2]: 335 nM | IC50 [3]: 3.71 nM | GI50 [4]: 7 nM
SMILES: C=CC(=O)Nc1cc(Nc2ncc(C(=O)OC(C)C)c(-c3cn(OC)c4ccccc34)n2)c(OC)cc1N(C)CCN(C)C.CS(=O)(=O)O [Compound 1]
